Measured values published in US20130302282A1, “Inhibitors of Hepatitis C Virus” (priority 2010, published 2013).
Like-named read-outs stand apart in the source and are kept apart here.

Assays:
HCV NS5B S365A mutant = molecular target: T1, HCV NS5B S365A mutant (Hepatitis C virus genotype 1b, UniProt Q9WMX2, S2784A); experiment: Activity against HCV NS5B S365A mutant; assay type: cell-based; details: for Inhibition of HCV NS5B S3865A mutant: class symbol
T1 construct: HCV NS5B C316Y or S365A mutant as indicated; expressed in transfected cells
Protocol: (§1) The biological activity against HCV 1b, 1a, or 2a is indicated as being *, **, ***, or ****, which corresponds to EC50 ranges of EC50>1000 nM, 100 nM<EC50≦1000 nM, 10 nM<EC50≦100 nM, or EC50≦10 nM, respectively. The biological activity against HCV NS5B C316Y or S365A mutant is indicated as being […], which corresponds to EC50 ranges of EC50>1000 nM, 200 nM<EC50≦1000 nM, […], respectively.

[1] = test system: 1b_Huh-Luc/Neo-ET cell line (bicistronic genotype 1b replicon in Huh 7 cells); experiment: HCV 1b replicon assay, luciferase readout; assay type: cell-based, HCV genotype 1b; details: Hepatitis C virus
Procedure, shortened: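 Huh 7 cells persistently carrying a bicistronic genotype 1b luciferase replicon, treated with compound in triplicate the day after plating and incubated 72 h. Luciferase activity measured by Bright-Glo and expressed as percent of untreated control; EC50 from four-parameter fit, repeated several times.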

HCV NS5B C316Y mutant = molecular target: T2, HCV NS5B C316Y mutant (Hepatitis C virus genotype 1b, UniProt Q9WMX2, C2735Y); experiment: Activity against HCV NS5B C316Y mutant; assay type: cell-based; details: for Inhibition of HCV N55B C316Y mutant: class symbol
T2 construct: HCV NS5B C316Y or S365A mutant as indicated; expressed in transfected cells
Protocol: as §1

HCV 1a = HCV 1a replicon assay; assay type: cell-based; details: Hepatitis C virus; class symbol; cell marked (HCV genotype 1a replicon); read-out: Inhibition of HCV genotype 1a replicon
Protocol: (§2) Compounds of the invention can inhibit multiple genotypes of HCV selected but not limited to 1a, 1h, 2a, 3a, and 4a. The EC50s are measured in the corresponding replicon assays that are similar to HCV 1b replicon assay as described above.
as §1

HCV 2a = HCV 2a replicon assay; assay type: cell-based; details: Hepatitis C virus; class symbol; cell marked (HCV genotype 2a replicon); read-out: Inhibition of HCV genotype 2a replicon
Protocol: as §2, §1

[2] = Huh-7, 1b_Huh-Luc/Neo-ET cell line, read-out: EC50, half-maximal inhibition of HCV 1b replication
[3] = Huh-7, numeric value, HCV genotype 1b replicon, read-out: Inhibition of HCV genotype 1b replicon (EC50)
[4] = Huh-7, class symbol, HCV genotype 1b replicon, read-out: Inhibition of HCV genotype 1b replicon

T2 sequence (Q9WMX2 2420-3010 C2735Y): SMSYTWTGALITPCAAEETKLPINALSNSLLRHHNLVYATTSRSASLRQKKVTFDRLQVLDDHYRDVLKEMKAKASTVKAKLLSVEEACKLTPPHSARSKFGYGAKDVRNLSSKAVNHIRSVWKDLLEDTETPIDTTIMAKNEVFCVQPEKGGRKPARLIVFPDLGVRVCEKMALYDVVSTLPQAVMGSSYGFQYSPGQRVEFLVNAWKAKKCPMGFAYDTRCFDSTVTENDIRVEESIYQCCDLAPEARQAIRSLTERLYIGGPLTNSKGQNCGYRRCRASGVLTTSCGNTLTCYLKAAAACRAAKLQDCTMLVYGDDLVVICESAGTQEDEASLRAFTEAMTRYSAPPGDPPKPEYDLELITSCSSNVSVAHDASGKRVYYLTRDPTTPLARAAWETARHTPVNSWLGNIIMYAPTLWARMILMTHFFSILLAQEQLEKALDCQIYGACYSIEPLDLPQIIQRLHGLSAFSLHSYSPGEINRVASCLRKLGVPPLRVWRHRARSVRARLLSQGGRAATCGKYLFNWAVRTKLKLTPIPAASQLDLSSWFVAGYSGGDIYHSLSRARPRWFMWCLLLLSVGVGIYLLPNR
T1 sequence (Q9WMX2 2420-3010 S2784A): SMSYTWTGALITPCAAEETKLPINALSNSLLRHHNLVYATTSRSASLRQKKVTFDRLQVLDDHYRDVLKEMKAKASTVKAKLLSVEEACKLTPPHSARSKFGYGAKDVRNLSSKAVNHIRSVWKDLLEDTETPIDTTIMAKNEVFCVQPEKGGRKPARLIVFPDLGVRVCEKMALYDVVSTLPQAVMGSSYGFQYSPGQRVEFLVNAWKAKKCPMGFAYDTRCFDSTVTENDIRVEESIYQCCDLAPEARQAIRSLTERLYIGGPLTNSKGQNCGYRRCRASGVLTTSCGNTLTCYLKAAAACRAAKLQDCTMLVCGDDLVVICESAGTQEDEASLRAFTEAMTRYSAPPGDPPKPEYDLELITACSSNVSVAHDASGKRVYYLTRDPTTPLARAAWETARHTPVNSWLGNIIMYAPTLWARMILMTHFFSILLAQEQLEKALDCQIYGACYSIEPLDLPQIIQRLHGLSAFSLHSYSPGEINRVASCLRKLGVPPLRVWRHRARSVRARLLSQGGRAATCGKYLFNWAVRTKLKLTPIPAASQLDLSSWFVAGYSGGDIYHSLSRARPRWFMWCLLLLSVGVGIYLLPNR

Row | SMILES | EC50 [1, 2] [nM] | EC50 (HCV 1a) [nM] | EC50 (HCV 2a) [nM] | other results
1 | CNC(=O)c1c(-c2ccc(Oc3ccc(F)cc3)cc2)oc2cc3c(cc12)[C@H](C)CCCN3S(C)(=O)=O (single isomer, unassigned) [Compound B85] | ≤ 10 | – | – | Inhibition of HCV NS5B S3865A mutant (HCV NS5B S365A mutant): †††; EC50 [1, 3]: 3 nM; Inhibition of HCV N55B C316Y mutant (HCV NS5B C316Y mutant): †††
2 | CNC(=O)c1c(-c2ccc(F)cc2)oc2cc3c(cc12)[C@@H]1C[C@@H]1CCN3S(C)(=O)=O (single isomer, unassigned) [Compound B132] | ≤ 10 | – | – | Inhibition of HCV NS5B S3865A mutant (HCV NS5B S365A mutant): †††; EC50 [1, 4]: < 10 nM; Inhibition of HCV N55B C316Y mutant (HCV NS5B C316Y mutant): †††
3 | CNC(=O)c1c(-c2ccc(Oc3ccc(F)cc3)cc2)oc2cc3c(cc12)[C@@H]1C[C@@H]1CCN3S(C)(=O)=O (single isomer, unassigned) [Compound B146] | 10 to 100 | 10 to 100 | – | –
4 | CNC(=O)c1c(-c2ccc(Oc3ccc(F)cc3)cc2)oc2cc3c(cc12)[C@H](C)n1nncc1CN3S(C)(=O)=O (single isomer, unassigned) [Compound B163] | ≤ 10 | – | – | Inhibition of HCV NS5B S3865A mutant (HCV NS5B S365A mutant): †††; EC50 [1, 4]: < 10 nM; Inhibition of HCV N55B C316Y mutant (HCV NS5B C316Y mutant): †††
5 | CNC(=O)c1c(-c2ccc(F)cc2)oc2cc3c(cc12)[C@H](C)n1nncc1CN3S(C)(=O)=O (single isomer, unassigned) [Compound B169] | ≤ 10 | – | – | Inhibition of HCV NS5B S3865A mutant (HCV NS5B S365A mutant): †††; EC50 [1, 4]: < 10 nM; Inhibition of HCV N55B C316Y mutant (HCV NS5B C316Y mutant): †††
6 | CNC(=O)c1c(-c2ccc(Oc3ccc(F)cc3)cc2)oc2cc3c(cc12)[C@H](C)OC(C)(C)CN3S(C)(=O)=O (single isomer, unassigned) [Compound B176] | 10 to 100 | – | – | EC50 (HCV NS5B S365A mutant): 200 to 1000 nM; EC50 [1, 3]: 13.6 nM; EC50 (HCV NS5B C316Y mutant): 200 to 1000 nM
7 | CNC(=O)c1c(-c2ccc(F)cc2)oc2cc3c(cc12)C(C)CCN3S(C)(=O)=O (centres unmarked) [Compound B10] | – | – | 100 to 1000 | –
8 | CNC(=O)c1c(-c2ccc(F)cc2)oc2cc3c(cc12)C(C)=CCN3S(C)(=O)=O [Compound B11] | – | – | > 1000 | –
9 | C=CC1CCCN(S(C)(=O)=O)c2cc3oc(-c4ccc(F)cc4)c(C(=O)NC)c3cc21 (centres unmarked) [Compound B60] | 10 to 100 | – | 10 to 100 | –
10 | C=C1CCCN(S(C)(=O)=O)c2cc3oc(-c4ccc(F)cc4)c(C(=O)NC)c3cc21 [Compound B61] | – | – | > 1000 | –
11 | CNC(=O)c1c(-c2ccc(F)cc2)oc2cc3c(cc12)C(C)=CCCN3S(C)(=O)=O [Compound B62] | – | – | > 1000 | –
12 | CCC1CCCN(S(C)(=O)=O)c2cc3oc(-c4ccc(F)cc4)c(C(=O)NC)c3cc21 (centres unmarked) [Compound B63] | 10 to 100 | – | 10 to 100 | –
13 | CS(=O)(=O)N1CCCCc2cc3c(C(=O)NC#N)c(-c4ccc(F)cc4)oc3cc21 [Compound B64] | – | – | > 1000 | –
14 | CS(=O)(=O)N1CCCCc2cc3c(-c4nnn[nH]4)c(-c4ccc(F)cc4)oc3cc21 [Compound B65] | – | – | > 1000 | –
15 | CS(=O)(=O)N1CCCCc2cc3c(C4=NCCN4)c(-c4ccc(F)cc4)oc3cc21 [Compound B66] | – | – | > 1000 | –
16 | C=C1CCCN(S(C)(=O)=O)c2cn3nc(-c4ccc(F)cc4)c(C(=O)NC)c3cc21 [Compound B68] | – | – | > 1000 | –
17 | CNC(=O)c1c(-c2ccc(F)cc2)nn2cc3c(cc12)C(=O)CCCN3S(C)(=O)=O [Compound B69] | – | – | > 1000 | –
18 | CNC(=O)c1c(-c2ccc(F)cc2)nn2cc3c(cc12)OCCCN3S(C)(=O)=O [Compound B70] | – | – | > 1000 | –
19 | CNC(=O)c1c(-c2ccc(F)cc2)oc2cc3c(cc12)C(OC)CCCN3S(C)(=O)=O (centres unmarked) [Compound B71] | 10 to 100 | – | 10 to 100 | –
20 | CNC(=O)c1c(-c2ccc(F)cc2)nn2cc3c(cc12)C(C)=CCCN3S(C)(=O)=O [Compound B72] | – | – | > 1000 | –
21 | CNC(=O)c1c(-c2ccc(F)cc2)nn2cc3c(cc12)C(O)CCCN3S(C)(=O)=O (centres unmarked) [Compound B73] | – | – | > 1000 | –
22 | CNC(=O)c1c(-c2ccc(F)cc2)nn2cc3c(cc12)C=CCCN3S(C)(=O)=O [Compound B74] | – | – | > 1000 | –
23 | CNC(=O)c1c(-c2ccc(Oc3ccc(F)cc3)cc2)nn2cc3c(cc12)C(C)CCCN3S(C)(=O)=O (centres unmarked) [Compound B76] | – | – | 100 to 1000 | –
24 | CNC(=O)c1c(-c2ccc(F)cc2)oc2cc3c(cc12)C(=O)C(C)CCN3S(C)(=O)=O (centres unmarked) [Compound B77] | – | – | 100 to 1000 | –
25 | CNC(=O)c1c(-c2ccc(F)cc2)oc2cc3c(cc12)C(O)C(C)CCN3S(C)(=O)=O (centres unmarked) [Compound B78] | – | – | 100 to 1000 | –

Row | SMILES | EC50 [1, 2] [nM] | EC50 (HCV 1a) [nM] | EC50 (HCV 2a) [nM] | other results
26 | CNC(=O)c1c(-c2ccc(F)cc2)oc2cc3c(cc12)C=C(C)CCN3S(C)(=O)=O [Compound B79] | – | – | > 1000 | –
27 | CNC(=O)c1c(-c2ccc(Oc3cccc(Cl)c3)cc2)nn2cc3c(cc12)C(C)CCCN3S(C)(=O)=O (centres unmarked) [Compound B98] | – | – | 100 to 1000 | –
28 | CNC(=O)c1c(-c2ccc(Oc3ccc(Cl)cc3)cc2)nn2cc3c(cc12)C(C)CCCN3S(C)(=O)=O (centres unmarked) [Compound B99] | – | – | 100 to 1000 | –
29 | CNC(=O)c1c(-c2ccc(F)cc2)oc2cc3c(cc12)C(=O)C(C)(C)CCN3S(C)(=O)=O [Compound B100] | 10 to 100 | – | 10 to 100 | –
30 | C=C1c2cc3c(C(=O)NC)c(-c4ccc(F)cc4)oc3cc2N(S(C)(=O)=O)CCC1(C)C [Compound B101] | 10 to 100 | – | 10 to 100 | –
31 | CNC(=O)c1c(-c2ccc(F)cc2)oc2cc3c(cc12)C(=O)N(C)CCN3S(C)(=O)=O [Compound B106] | 10 to 100 | 10 to 100 | – | –
32 | CNC(=O)c1c(-c2ccc(F)cc2)oc2cc3c(cc12)C(C)N(CC1CC1)CCN3S(C)(=O)=O (centres unmarked) [Compound B108] | 10 to 100 | 10 to 100 | – | –
33 | CNC(=O)c1c(-c2ccc(F)cc2)oc2cc3c(cc12)C(C)N(C(=O)OC)CCN3S(C)(=O)=O (centres unmarked) [Compound B109] | 10 to 100 | 10 to 100 | – | –
34 | CNC(=O)c1c(-c2ccc(F)cc2)oc2cc3c(cc12)C(C)N(C(=O)OCc1ccccc1)CCN3S(C)(=O)=O (centres unmarked) [Compound B111] | 10 to 100 | 10 to 100 | – | –
35 | [2H]C([2H])([2H])NC(=O)c1c(-c2ccc(F)cc2)oc2cc3c(cc12)CCCCN3S(C)(=O)=O [Compound B112] | 10 to 100 | 10 to 100 | – | –
36 | [2H]C([2H])([2H])NC(=O)c1c(-c2ccc(F)cc2)oc2cc3c(cc12)CCCCCN3S(C)(=O)=O [Compound B113] | 10 to 100 | 10 to 100 | – | –
37 | CNC(=O)c1c(-c2ccc(F)cc2)oc2cc3c(cc12)C(C)C(C)(C)CCN3S(C)(=O)=O (centres unmarked) [Compound B115] | 10 to 100 | 10 to 100 | – | –
38 | CNC(=O)c1c(-c2ccc(Oc3ccc(F)cc3)cc2)oc2cc3c(cc12)C(C)OCCN3S(C)(=O)=O (centres unmarked) [Compound B116] | 10 to 100 | 10 to 100 | – | –
39 | [2H]C([2H])([2H])NC(=O)c1c(-c2ccc(Oc3ccc(F)cc3)cc2)oc2cc3c(cc12)C(C)OCCN3S(C)(=O)=O (centres unmarked) [Compound B119] | 10 to 100 | 10 to 100 | – | –
40 | [2H]C([2H])([2H])NC(=O)c1c(-c2ccc(F)cc2)oc2cc3c(cc12)C(C)CCCN3S(C)(=O)=O (centres unmarked) [Compound B121] | ≤ 10 | < 10 | – | –
41 | CCCN1CCN(S(C)(=O)=O)c2cc3oc(-c4ccc(F)cc4)c(C(=O)NC)c3cc2C1C (centres unmarked) [Compound B137] | 10 to 100 | 10 to 100 | – | –
42 | CNC(=O)c1c(-c2ccc(Oc3ccc(F)cc3)cc2)oc2cc3c(cc12)C1CC1CCN3S(C)(=O)=O (centres unmarked) [Compound B140] | – | 100 to 1000 | – | –
43 | CNC(=O)c1c(-c2ccc(Oc3ccc(F)cc3)cc2)oc2cc3c(cc12)C1(CCCN3S(C)(=O)=O)CC1 [Compound B141] | – | 100 to 1000 | – | –
44 | CNC(=O)c1c(-c2ccc(F)cc2)oc2cc3c(cc12)C(C)N(CC(=O)N(C)C)CCN3S(C)(=O)=O (centres unmarked) [Compound B150] | 10 to 100 | 10 to 100 | – | –
45 | CNC(=O)c1c(-c2ccc(Oc3ccc(F)cc3)cc2)oc2cc3c(cc12)C(C)N(C)CCN3S(C)(=O)=O (centres unmarked) [Compound B151] | 10 to 100 | 10 to 100 | – | –
46 | [2H]C([2H])([2H])NC(=O)c1c(-c2ccc(F)cc2)oc2cc3c(cc12)C(C)N(C)CCN3S(C)(=O)=O (centres unmarked) [Compound B152] | – | 100 to 1000 | – | –
47 | CNC(=O)c1c(-c2ccc(F)cc2)oc2cc3c(cc12)C(CF)OCCN3S(C)(=O)=O (centres unmarked) [Compound B153] | 10 to 100 | 10 to 100 | – | –
48 | CNC(=O)c1c(-c2ccc(F)cc2)oc2cc3c(cc12)C(C)N(CCCO)CCN3S(C)(=O)=O (centres unmarked) [Compound B154] | 10 to 100 | 10 to 100 | – | –
49 | CNC(=O)c1c(-c2ccc(F)cc2)oc2cc3c(cc12)C(C)N(CCc1ccc(F)cc1)CCN3S(C)(=O)=O (centres unmarked) [Compound B155] | 10 to 100 | 10 to 100 | – | –
